Results on five molecules are retold here after publication PMC8234143, “Synthesis and Antiviral Evaluation of Nucleoside Analogues Bearing One Pyrimidine Moiety and Two D-Ribofuranosyl Residues” (Molecules, 2021).

Read-outs that look alike come from different tables or passages of the source.

One series deals with HuTu-80. As to the kind of experiment: Cytotoxicity assay (Cytell Cell Imaging, DAPI/propidium iodide). Conditions: Homo sapiens, HuTu80; cytotoxic activity, duodenal adenocarcinoma; read-out: IC50 Cancer Cell Lines HuTu-80. The format is cell-based.
Another series deals with WI-38. The series is described as above. The class given is cell-based. Conditions: cytotoxic activity, normal human lung fibroblasts, read-out: IC50 Normal Cell Line WI-38.
In the next series the test system is M-HeLa. The series is described as above. Particulars: cytotoxic activity, human cervix epitheloid carcinoma, read-out: IC50 Cancer Cell Lines M-HeLa. The format is cell-based.
In the next series the test system is PC-3. The series is described as above. The format is cell-based. Conditions: cytotoxic activity, human prostate adenocarcinoma, read-out: IC50 Cancer Cell Lines PC-3.
In the next series the test system is Vero cells. Conditions: for CC50: Vero cells, MTT, concentration causing 50% cell death.
Series [1] is described as follows: in vitro. Conditions: African green monkey, CC50, Vero cells, MTT; concentration causing 50% cell death.
Series [2] can be described thus: in vitro. Particulars: dog.
Series [3] has as its system A/Puerto Rico/8/34 (H1N1) influenza virus. Kind of series: Antiviral (cytoprotection, MTT) assay against influenza virus in MDCK cells. The class given is cell-based. Conditions: for SI: CC50/IC50 ratio, influenza H1N1 / MDCK; for IC50: Influenza A virus, H1N1, MDCK, 48 h.
The test system of a further series is Coxsackie B3 virus. As to the kind of experiment: Antiviral (cytoprotection, MTT) assay against Coxsackie B3 virus in Vero cells. The class given is cell-based, coxsackievirus B3. Conditions: for IC50: 50% inhibition of virus replication, Vero cells, 48 h; for SI: CC50/IC50 ratio, Coxsackie B3 / Vero.
[4] abbreviates: 50% inhibition of virus replication, MDCK cells, read-out: IC50.

Broadly, the IC50 is the concentration that gives 50% inhibition. Regarding `O=c1[nH]cc(F)c(=O)[nH]1` [5-Fluorouracil, reference compound], the 50% inhibitory concentration (IC50) with HuTu-80 amounted to 65.2 ± 5.5 µM; with WI-38, 82.5 ± 6.6 µM; in the series with M-HeLa, 62 ± 4.9 µM; with PC-3, 10.3 ± 0.8 µM.

On to `CC(=O)OCC1OC(n2cc(CCCCn3c(C)cc(=O)n(CCCCc4cn(C5OC(COC(C)=O)C(OC(C)=O)C5OC(C)=O)nn4)c3=O)nn2)C(OC(C)=O)C1OC(C)=O` (stereo not shown) [Compound 2f], for which the CC50 in the series on Vero cells was 17.7 ± 0.6 µM; in “in vitro [1]”, 18 µM; in “in vitro [2]”, > 338 µM. Besides, the concentration for half-maximal inhibition (IC50) was > 100 µM in the series with HuTu-80; > 100 µM with WI-38; 88.1 ± 7.4 µM with M-HeLa; 96.3 ± 12.4 µM in series [3]; > 12.4 µM in the series on Coxsackie B3 virus; 12.4 µM in the series on Coxsackie B3 virus (Enterovirus B, B3, Vero). Besides, in the series with PC-3, the 50% inhibitory concentration (IC50) was > 100 µM. The SI in series [3] is reported as 4; with Coxsackie B3 virus, 1. Moreover, in series [3] (MDCK cells), the “antiviral activity against influenza virus A H1N1 (in words)” value was “inactive”.

With `Cc1cc(=O)n(CCCCc2cn(C3OC(CO)C(O)C3O)nn2)c(=O)n1CCCCc1cn(C2OC(CO)C(O)C2O)nn1` (stereo not shown) [Compound 2i], the “cytotoxicity against the Vero cell line (in words)” value with Vero cells is recorded as “not cytotoxic”. Further, the IC50 is > 100 µM in the series on HuTu-80; > 100 µM in the series on WI-38; 100 ± 8.5 µM in the series on M-HeLa; 57.5 ± 7.1 µM in [3] (setting [4]); > 471 µM in the series with Coxsackie B3 virus (Enterovirus B, B3, Vero); > 100 µM in the series on PC-3. In addition, the CC50 in “in vitro [1]” and in the series “in vitro [2]” was > 471 µM each time. Also, the SI came out at 8 in series [3] and 1 in the series on Coxsackie B3 virus.

Take `CC(=O)OCC1OC(n2cc(CCCCn3c(=O)c4nc5ccccc5nc4n(CCCCc4cn(C5OC(COC(C)=O)C(OC(C)=O)C5OC(C)=O)nn4)c3=O)nn2)C(OC(C)=O)C1OC(C)=O` (stereo not shown) [Compound 5f]: the CC50 with Vero cells was 17.8 ± 1.1 µM; in the series “in vitro [1]”, 18 µM; in the series “in vitro [2]” it was > 308 µM. The IC50 is > 100 µM in the series on HuTu-80; > 100 µM in the series on WI-38; 71.4 ± 6.3 µM in the series on M-HeLa; 91.6 ± 10.8 µM in series [3] (setting [4]); > 11.3 µM in the series on Coxsackie B3 virus; 11.3 µM in the series with Coxsackie B3 virus (Enterovirus B, B3, Vero). Also, in the series with PC-3, the IC50 came out at 66.8 ± 5.3 µM. The SI in [3] is on record as 3; with Coxsackie B3 virus, 2. Further, the “antiviral activity against influenza virus A H1N1 (in words)” value in series [3] (MDCK cells) was “inactive”.

Regarding `O=c1c2nc3ccccc3nc2n(CCCCc2cn(C3OC(CO)C(O)C3O)nn2)c(=O)n1CCCCc1cn(C2OC(CO)C(O)C2O)nn1` (stereo not shown) [Compound 5i], in the series with Vero cells, the “cytotoxicity against the Vero cell line (in words)” value is recorded as “not cytotoxic”. The IC50 with HuTu-80 is > 100 µM; with WI-38, > 100 µM; in the series with M-HeLa, 71 ± 6.1 µM; in series [3] (setting [4]), 24.3 ± 3.2 µM; with Coxsackie B3 virus (Enterovirus B, B3, Vero), > 414 µM; in the series with PC-3, > 100 µM. Also, the CC50 in the series “in vitro [1]” and in the series “in vitro [2]” was > 414 µM throughout. Moreover, the figures for the SI (in series [3]; in the series on Coxsackie B3 virus) were 17 and 1, respectively.
